Here are results for 1 compound from patent publication US7655671B2, “Morphinan derivatives, the quaternary ammonium salts thereof substituted in position 14, method for production and use thereof” (priority 2002, dated 2010).

The structures appear in SMILES notation.

One series has as its target T1, μ-receptors (Mus musculus, UniProt P42866).
T1 construct: Vas Deferens Preparation of the Mouse; from tissue; host or cells: mouse vas deferens
The series can be described thus: Antagonistic activity in the vas deferens preparation of the mouse using DAMGO. The series is classed as biochemical. To be noted: DAMGO.

For another series, the target named is T2, μ-opioid receptors (Rattus norvegicus, UniProt P33535).
T2 construct: from tissue; host or cells: rat brain homogenate
T2 sequence (P33535 whole entry): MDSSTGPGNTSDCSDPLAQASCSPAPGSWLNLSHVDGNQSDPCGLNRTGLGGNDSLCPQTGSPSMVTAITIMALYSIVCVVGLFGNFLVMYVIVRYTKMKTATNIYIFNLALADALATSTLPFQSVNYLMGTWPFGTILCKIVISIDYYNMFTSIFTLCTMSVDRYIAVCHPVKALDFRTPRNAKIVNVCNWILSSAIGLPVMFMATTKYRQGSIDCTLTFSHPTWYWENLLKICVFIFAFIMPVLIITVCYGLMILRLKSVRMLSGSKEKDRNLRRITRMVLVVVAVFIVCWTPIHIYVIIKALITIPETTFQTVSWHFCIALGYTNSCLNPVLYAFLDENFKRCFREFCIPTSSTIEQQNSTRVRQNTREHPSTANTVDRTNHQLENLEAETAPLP
As to the kind of experiment: Opioid receptor binding studies on rat's brain homogenisates with [3H]DAMGO.

The term melting point denotes the temperature, or range, at which the solid turns liquid. As usually defined, the Ki is the dissociation constant of the complex between target and ligand, obtained from inhibition or displacement. The low end stands for a stronger hold on the target, the high end for a looser hold on the target.

T1 sequence (P42866 whole entry): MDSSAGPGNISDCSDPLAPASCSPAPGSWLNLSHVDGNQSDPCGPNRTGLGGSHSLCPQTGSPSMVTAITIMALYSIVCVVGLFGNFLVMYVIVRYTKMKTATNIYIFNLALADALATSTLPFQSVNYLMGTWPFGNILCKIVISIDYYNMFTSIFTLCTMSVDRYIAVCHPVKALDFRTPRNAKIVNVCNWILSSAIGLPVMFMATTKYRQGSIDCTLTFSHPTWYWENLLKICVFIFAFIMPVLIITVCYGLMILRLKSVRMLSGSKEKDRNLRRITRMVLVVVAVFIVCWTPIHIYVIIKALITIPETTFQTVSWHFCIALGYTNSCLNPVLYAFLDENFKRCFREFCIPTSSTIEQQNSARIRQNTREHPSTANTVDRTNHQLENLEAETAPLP

The compound `C[N@+]1(CC2CC2)CC[C@]23c4c5ccc(O)c4O[C@H]2C(=O)CC[C@@]3(OCCCc2ccccc2)[C@H]1C5.[I-]` [Compound 48, (17R)-17-cyclopropylmethyl-4,5α-epoxy-3-hydroxy-17-methyl-6-oxo-14β-[(3-phenylpropyl)oxy]morphinanium-iodide] returned a melting point of 175 to 176 °C. Also, the “antagonistic activity to μ-opioid receptors (in words)” value on μ-receptors is listed as “very high antagonistic activity”. In addition, the Ki at μ-opioid receptors was 0.93 nM.
